Assays:
Assay type in all cases: functional, cell-based
[1] = target: Taste receptor type 2 member 13 (Homo sapiens, UniProt Q9NYV9); assay: Agonist activity at human TAS2R13 expressed in HEK293T cells co-expressing Galpha15 assessed as increase in intracellular calcium level by Calcium-3 dye based fluorescence assay
[2] = target: Taste receptor type 2 member 31 (Homo sapiens, UniProt P59538); assay: Agonist activity at human TAS2R44 expressed in HEK293T cells co-expressing Galpha15 assessed as increase in intracellular calcium level by Calcium-3 dye based fluorescence assay
[3] = target: Taste receptor type 2 member 14 (Homo sapiens, UniProt Q9NYV8); assay: Agonist activity at human TAS2R14 expressed in HEK293T cells co-expressing Galpha15 assessed as increase in intracellular calcium level by Calcium-3 dye based fluorescence assay
[4] = target: Taste receptor type 2 member 60 (Homo sapiens, UniProt P59551); assay: Agonist activity at human TAS2R60 expressed in HEK293T cells co-expressing Galpha15 assessed as increase in intracellular calcium level by Calcium-3 dye based fluorescence assay
[5] = target: Taste receptor type 2 member 9 (Homo sapiens, UniProt Q9NYW1); assay: Agonist activity at human TAS2R9 expressed in HEK293T cells co-expressing Galpha15 assessed as increase in intracellular calcium level by Calcium-3 dye based fluorescence assay
[6] = target: Taste receptor type 2 member 4 (Homo sapiens, UniProt Q9NYW5); assay: Agonist activity at human TAS2R4 expressed in HEK293T cells co-expressing Galpha15 assessed as increase in intracellular calcium level by Calcium-3 dye based fluorescence assay
[7] = target: T1, Taste receptor type 2 member 13 (Homo sapiens) (UniProt Q9NYV9); assay: Agonist activity at human TAS2R13 expressed in HEK293T cells co-expressing Galpha15 assessed as increase in intracellular calcium level at 20 mM by Calcium-3 dye based fluorescence assay relative to control
T1 sequence (whole entry): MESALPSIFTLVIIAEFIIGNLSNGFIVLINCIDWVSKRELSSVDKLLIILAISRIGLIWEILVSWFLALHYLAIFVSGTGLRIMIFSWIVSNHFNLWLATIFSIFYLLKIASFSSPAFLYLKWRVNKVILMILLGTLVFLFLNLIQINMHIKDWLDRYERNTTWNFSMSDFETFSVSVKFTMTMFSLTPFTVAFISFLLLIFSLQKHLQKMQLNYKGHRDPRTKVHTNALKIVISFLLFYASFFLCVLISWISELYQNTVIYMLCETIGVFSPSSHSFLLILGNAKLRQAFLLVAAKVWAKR

[8] = target: T2, Taste receptor type 2 member 30 (Homo sapiens) (UniProt P59541); assay: Agonist activity at human TAS2R47 expressed in HEK293T cells co-expressing Galpha15 assessed as increase in intracellular calcium level at 20 mM by Calcium-3 dye based fluorescence assay relative to control
T2 sequence (whole entry): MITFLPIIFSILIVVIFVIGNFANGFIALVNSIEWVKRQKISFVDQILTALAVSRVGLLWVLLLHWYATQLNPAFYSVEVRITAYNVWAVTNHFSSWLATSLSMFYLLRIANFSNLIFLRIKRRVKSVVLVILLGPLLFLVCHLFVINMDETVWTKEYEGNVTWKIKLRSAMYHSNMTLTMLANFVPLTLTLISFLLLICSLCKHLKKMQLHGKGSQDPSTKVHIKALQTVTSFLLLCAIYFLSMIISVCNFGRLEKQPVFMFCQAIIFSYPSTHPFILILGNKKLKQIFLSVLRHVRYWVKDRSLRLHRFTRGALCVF

[9] = target: T3, Taste receptor type 2 member 39 (Homo sapiens) (UniProt P59534); assay: Agonist activity at human TAS2R39 expressed in HEK293T cells co-expressing Galpha15 assessed as increase in intracellular calcium level at 20 mM by Calcium-3 dye based fluorescence assay relative to control
T3 sequence (whole entry): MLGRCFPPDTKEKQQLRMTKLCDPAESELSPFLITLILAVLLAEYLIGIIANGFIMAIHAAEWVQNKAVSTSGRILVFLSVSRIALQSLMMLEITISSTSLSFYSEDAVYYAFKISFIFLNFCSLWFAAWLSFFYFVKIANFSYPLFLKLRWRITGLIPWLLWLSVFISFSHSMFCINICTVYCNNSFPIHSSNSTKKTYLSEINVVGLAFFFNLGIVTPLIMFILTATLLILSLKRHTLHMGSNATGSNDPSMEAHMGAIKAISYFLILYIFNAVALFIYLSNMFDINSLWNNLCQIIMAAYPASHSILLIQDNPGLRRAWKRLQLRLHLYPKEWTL

Taste receptor type 2 member 4, sequence (Q9NYW5 whole entry): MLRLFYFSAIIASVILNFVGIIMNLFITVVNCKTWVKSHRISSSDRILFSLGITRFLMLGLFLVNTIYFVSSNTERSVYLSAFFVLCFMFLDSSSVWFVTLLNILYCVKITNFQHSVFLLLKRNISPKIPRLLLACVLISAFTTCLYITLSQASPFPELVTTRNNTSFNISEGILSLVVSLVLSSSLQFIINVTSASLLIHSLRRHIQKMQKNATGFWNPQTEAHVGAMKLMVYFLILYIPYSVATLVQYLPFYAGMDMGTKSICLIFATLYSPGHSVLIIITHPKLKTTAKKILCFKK
Taste receptor type 2 member 31, sequence (P59538 whole entry): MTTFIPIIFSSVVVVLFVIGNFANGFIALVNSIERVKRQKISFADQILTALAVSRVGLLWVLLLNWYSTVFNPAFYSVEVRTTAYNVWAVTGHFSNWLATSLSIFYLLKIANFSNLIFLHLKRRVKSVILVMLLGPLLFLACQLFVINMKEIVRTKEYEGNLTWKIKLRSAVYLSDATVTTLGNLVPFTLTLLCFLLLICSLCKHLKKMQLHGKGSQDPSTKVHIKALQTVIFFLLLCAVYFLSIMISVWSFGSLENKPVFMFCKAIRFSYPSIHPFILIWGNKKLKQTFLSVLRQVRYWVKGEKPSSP
Taste receptor type 2 member 14, sequence (Q9NYV8 whole entry): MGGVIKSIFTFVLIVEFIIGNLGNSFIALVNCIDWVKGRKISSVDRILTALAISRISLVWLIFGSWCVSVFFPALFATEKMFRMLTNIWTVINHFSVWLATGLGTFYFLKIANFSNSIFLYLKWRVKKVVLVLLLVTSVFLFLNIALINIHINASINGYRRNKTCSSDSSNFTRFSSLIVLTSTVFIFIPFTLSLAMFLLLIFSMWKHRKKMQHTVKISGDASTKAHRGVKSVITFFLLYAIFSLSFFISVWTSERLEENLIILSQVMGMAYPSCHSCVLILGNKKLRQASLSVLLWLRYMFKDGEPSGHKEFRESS
Taste receptor type 2 member 60, sequence (P59551 whole entry): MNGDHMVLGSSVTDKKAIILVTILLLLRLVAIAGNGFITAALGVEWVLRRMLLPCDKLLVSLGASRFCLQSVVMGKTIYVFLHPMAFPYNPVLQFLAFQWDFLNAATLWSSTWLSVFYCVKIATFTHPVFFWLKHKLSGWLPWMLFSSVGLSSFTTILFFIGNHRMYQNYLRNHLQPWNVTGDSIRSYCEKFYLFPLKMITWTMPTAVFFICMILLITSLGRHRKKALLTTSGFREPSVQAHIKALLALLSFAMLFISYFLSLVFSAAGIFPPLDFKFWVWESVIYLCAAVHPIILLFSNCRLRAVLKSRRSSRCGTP
Taste receptor type 2 member 9, sequence (Q9NYW1 whole entry): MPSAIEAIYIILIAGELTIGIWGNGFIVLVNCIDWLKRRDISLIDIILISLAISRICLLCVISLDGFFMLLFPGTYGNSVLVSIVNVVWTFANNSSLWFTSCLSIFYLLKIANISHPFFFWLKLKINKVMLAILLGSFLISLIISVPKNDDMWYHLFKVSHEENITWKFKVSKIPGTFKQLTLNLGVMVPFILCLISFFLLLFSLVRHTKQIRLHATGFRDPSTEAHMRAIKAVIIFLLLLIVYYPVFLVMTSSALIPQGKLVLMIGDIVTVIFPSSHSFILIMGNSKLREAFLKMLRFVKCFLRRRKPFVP

EC50 [1] [mM]	EC50 [2] [mM]	EC50 [3] [mM]	EC50 [4] [mM]	EC50 [5] [mM]	EC50 [6] [mM]	Activity [7] [%]	Activity [8] [%]	Activity [9] [%]	SMILES
5 to 15	5 to 15	5 to 15	5 to 15	5 to 15	5 to 15	> 40	< 40	< 40	[Cl-].[K+] [POTASSIUM CHLORIDE]
–	–	–	–	–	–	> 40	< 40	< 40	CC1=CC(=O)NS(=O)(=O)O1
–	–	–	–	–	–	> 40	< 40	< 40	CC(O)C(=O)[O-].[K+] (stereo not given)

Source: ChEMBL document CHEMBL4419163, “Assays for identifying compounds that modulate bitter taste” (2014)
